Reference: ChEMBL document CHEMBL3352260, “Identification and development of biphenyl substituted iminosugars as improved dual glucosylceramide synthase/neutral glucosylceramidase inhibitors” (J Med Chem, 2014)

How the values were obtained:
[1] = molecular target: Sucrase-isomaltase, intestinal (Homo sapiens, UniProt P14410); assay: Inhibition of intestinal sucrase (unknown origin)
[2] = molecular target: Lactase/phlorizin hydrolase (Homo sapiens, UniProt P09848); assay: Inhibition of intestinal lactase (unknown origin)
Chain of Lactase/phlorizin hydrolase (P09848 869-1927 limits assumed): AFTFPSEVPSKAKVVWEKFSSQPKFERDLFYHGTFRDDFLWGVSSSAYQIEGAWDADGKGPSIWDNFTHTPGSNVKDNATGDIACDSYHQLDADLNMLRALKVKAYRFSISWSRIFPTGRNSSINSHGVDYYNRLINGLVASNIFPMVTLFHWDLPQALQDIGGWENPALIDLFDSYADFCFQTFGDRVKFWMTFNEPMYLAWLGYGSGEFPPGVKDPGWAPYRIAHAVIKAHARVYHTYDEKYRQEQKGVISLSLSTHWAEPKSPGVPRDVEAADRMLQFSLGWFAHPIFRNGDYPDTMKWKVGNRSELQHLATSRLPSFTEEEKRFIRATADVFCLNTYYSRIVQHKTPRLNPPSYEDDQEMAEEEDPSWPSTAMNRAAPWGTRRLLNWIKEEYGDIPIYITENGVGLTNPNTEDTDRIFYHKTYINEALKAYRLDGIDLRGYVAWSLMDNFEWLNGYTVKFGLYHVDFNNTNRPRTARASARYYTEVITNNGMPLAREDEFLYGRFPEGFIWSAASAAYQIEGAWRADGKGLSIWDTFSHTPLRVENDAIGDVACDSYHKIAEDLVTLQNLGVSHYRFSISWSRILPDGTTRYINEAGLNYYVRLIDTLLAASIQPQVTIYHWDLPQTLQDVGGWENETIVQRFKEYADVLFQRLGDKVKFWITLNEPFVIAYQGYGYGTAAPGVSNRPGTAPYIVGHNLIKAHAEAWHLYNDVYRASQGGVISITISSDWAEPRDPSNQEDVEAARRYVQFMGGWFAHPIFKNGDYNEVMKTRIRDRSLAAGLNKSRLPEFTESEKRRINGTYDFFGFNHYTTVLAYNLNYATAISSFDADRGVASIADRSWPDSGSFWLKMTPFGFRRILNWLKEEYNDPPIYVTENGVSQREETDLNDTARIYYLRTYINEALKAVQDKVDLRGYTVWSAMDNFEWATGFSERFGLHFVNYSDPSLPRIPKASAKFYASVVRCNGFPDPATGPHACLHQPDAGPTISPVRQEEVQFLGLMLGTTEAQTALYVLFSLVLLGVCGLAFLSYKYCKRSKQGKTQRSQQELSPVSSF

[3] = molecular target: Maltase-glucoamylase (Homo sapiens, UniProt O43451); assay: Inhibition of intestinal maltase (unknown origin)
[4] = molecular target: T1, Beta-glucosidase (Homo sapiens, UniProt Q9HCG7)
T1 sequence (Q9HCG7 whole entry): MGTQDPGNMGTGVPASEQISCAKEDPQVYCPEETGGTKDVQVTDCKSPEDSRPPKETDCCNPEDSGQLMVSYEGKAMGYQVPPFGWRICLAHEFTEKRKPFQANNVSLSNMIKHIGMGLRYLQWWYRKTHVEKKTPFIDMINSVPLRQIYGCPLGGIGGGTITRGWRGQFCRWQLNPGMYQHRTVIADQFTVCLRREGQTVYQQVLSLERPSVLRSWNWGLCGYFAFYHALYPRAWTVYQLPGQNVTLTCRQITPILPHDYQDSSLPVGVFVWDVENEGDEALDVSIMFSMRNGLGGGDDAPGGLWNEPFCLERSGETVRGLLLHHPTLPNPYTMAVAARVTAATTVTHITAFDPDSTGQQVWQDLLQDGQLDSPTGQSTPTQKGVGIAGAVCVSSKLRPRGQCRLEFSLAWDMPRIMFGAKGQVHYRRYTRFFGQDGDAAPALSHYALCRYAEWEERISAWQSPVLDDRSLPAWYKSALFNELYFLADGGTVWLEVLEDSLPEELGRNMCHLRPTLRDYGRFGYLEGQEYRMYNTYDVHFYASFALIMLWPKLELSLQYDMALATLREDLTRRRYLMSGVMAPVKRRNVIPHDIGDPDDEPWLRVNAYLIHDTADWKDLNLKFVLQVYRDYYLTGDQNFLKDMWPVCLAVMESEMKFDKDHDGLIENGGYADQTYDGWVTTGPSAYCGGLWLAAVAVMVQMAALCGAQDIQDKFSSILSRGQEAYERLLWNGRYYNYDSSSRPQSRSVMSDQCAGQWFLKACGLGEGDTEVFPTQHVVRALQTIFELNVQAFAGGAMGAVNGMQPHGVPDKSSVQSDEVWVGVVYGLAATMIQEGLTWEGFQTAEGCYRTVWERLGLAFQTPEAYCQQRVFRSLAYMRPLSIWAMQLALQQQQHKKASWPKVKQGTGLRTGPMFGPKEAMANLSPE

[5] = molecular target: T2, Lysosomal acid glucosylceramidase (Homo sapiens, UniProt P04062)
T2 sequence (P04062 whole entry): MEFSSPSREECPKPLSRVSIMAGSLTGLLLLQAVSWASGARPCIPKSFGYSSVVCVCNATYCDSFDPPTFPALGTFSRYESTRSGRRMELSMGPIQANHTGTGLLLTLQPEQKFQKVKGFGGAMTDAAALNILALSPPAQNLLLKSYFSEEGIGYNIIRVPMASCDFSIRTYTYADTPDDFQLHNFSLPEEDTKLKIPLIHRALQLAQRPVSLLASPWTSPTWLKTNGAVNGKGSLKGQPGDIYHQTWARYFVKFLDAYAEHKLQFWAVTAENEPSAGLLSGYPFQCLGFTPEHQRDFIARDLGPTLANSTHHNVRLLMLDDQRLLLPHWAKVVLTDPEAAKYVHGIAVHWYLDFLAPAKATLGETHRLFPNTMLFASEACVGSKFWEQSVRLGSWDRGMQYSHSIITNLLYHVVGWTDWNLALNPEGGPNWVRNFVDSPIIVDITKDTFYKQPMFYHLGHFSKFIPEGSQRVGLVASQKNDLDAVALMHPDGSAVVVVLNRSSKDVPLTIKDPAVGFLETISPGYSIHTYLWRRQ

[6] = molecular target: T3, Ceramide glucosyltransferase (Homo sapiens, UniProt Q16739)
T3 sequence (Q16739 whole entry): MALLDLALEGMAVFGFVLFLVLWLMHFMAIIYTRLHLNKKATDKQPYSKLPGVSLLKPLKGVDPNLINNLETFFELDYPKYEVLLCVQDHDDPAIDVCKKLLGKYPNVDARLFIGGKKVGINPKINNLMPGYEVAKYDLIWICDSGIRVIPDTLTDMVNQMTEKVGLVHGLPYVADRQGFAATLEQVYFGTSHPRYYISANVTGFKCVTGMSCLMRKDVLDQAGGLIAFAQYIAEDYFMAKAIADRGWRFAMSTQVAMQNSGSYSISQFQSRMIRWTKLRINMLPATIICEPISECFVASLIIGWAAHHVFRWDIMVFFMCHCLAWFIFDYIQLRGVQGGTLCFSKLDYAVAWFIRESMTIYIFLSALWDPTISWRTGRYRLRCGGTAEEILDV

[7] = molecular target: T3, Ceramide glucosyltransferase; remark: listed apart in the source

Chain of Sucrase-isomaltase, intestinal (P14410 2-1007 limits assumed): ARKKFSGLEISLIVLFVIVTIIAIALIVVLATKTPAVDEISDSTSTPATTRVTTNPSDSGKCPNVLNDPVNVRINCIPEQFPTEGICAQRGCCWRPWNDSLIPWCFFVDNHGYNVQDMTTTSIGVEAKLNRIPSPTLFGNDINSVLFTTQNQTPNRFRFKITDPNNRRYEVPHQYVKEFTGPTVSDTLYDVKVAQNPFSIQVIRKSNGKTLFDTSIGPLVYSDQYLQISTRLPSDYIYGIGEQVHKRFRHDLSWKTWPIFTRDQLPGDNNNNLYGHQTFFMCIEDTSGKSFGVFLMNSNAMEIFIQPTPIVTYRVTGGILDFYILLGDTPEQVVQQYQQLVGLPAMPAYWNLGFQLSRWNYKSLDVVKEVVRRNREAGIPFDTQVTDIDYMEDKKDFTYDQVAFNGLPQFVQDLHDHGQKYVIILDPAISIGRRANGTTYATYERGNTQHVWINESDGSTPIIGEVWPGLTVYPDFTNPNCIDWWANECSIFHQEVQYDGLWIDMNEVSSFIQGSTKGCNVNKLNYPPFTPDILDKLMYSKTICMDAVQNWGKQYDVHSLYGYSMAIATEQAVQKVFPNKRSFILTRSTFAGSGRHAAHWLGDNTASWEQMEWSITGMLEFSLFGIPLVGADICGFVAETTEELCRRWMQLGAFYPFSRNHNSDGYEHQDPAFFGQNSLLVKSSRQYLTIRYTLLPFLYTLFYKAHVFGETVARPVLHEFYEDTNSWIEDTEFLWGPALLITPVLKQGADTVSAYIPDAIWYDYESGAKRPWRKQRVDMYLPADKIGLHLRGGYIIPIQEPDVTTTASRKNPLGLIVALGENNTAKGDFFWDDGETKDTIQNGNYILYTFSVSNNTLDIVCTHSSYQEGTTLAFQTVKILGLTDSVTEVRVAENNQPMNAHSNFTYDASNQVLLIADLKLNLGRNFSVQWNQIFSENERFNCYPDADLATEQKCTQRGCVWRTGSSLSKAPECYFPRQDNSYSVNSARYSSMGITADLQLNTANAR
Chain of Sucrase-isomaltase, intestinal (P14410 1008-1827 limits assumed): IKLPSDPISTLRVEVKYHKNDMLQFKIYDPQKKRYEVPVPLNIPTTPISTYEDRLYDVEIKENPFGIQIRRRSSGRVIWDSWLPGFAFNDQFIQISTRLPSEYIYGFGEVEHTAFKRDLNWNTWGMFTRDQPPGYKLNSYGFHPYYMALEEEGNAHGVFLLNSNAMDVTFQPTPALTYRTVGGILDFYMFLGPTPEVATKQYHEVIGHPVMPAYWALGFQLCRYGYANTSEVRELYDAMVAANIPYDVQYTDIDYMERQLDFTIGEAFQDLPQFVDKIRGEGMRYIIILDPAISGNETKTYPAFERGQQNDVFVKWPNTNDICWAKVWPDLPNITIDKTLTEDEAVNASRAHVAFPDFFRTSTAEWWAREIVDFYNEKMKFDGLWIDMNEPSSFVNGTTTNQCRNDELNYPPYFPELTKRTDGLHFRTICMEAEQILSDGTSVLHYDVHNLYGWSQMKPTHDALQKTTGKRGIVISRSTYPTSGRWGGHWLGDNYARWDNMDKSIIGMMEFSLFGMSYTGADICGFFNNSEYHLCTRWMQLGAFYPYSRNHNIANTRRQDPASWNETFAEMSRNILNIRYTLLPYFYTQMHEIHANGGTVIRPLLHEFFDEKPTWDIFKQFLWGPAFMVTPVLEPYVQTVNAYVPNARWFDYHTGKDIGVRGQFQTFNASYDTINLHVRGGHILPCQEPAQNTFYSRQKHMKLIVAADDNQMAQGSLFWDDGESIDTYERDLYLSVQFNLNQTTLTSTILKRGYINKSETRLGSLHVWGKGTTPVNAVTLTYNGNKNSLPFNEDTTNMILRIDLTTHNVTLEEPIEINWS

| SMILES | IC50 [1] | IC50 [2] | IC50 [3] | IC50 [4] | IC50 [5] | IC50 [6] | IC50 [7] |
| --- | --- | --- | --- | --- | --- | --- | --- |
| OC[C@@H]1[C@@H](O)[C@H](O)[C@@H](O)CN1CCCCCOCc1ccc(-c2ccccc2)cc1F | 0.25 µM | 30 µM | 2.5 µM | 0.08 nM | – | – | – |
| OC[C@@H]1[C@@H](O)[C@H](O)[C@@H](O)CN1CCCCCCC12CC3CC(CC(C3)C1)C2 | – | – | – | 10 nM | 0.06 µM | Not Active | – |
| OC[C@H]1[C@@H](O)[C@H](O)[C@@H](O)CN1CCCCCOCc1ccc(-c2ccccc2)cc1C(F)(F)F | > 100 µM | 125 µM | > 100 µM | – | – | – | – |
| CC(C)=CCC/C(C)=C/CC/C(C)=C/CCOCCCCCN1C[C@H](O)[C@@H](O)[C@H](O)[C@H]1CO | – | – | – | 100 nM | 2.5 µM | Not Active | – |
| OC[C@H]1[C@@H](O)[C@H](O)[C@@H](O)CN1CCCCCOCc1ccc(-c2ccccc2)c(F)c1 [NIZUBAGLUSTAT] | > 100 µM | 50 µM | > 100 µM | – | – | – | – |
| OC[C@@H]1[C@@H](O)[C@H](O)[C@@H](O)CN1CCCC/C=C\C12CC3CC(CC(C3)C1)C2 | – | – | – | 5 nM | 0.5 µM | Not Active | – |
| OC[C@@H]1[C@@H](O)[C@H](O)[C@@H](O)CN1CCCCCOCc1ccc(-c2ccccc2)c(F)c1 | 0.4 µM | 20 µM | 3 µM | 0.08 nM | – | – | – |
| OC[C@H]1[C@@H](O)[C@H](O)[C@@H](O)CN1CCCCCOCc1ccc(-c2ccccc2)cc1F | > 100 µM | 60 µM | > 100 µM | – | – | – | – |
| OC[C@H]1[C@@H](O)[C@H](O)[C@@H](O)CN1CCCCCOCc1cc2ccccc2c2ccccc12 | – | – | – | 200 nM | 600 µM | Not Active | – |
| OC[C@@H]1[C@@H](O)[C@H](O)[C@@H](O)CN1CCCCCOCc1ccccc1-c1ccccc1 | 0.2 µM | 17 µM | 1.5 µM | – | – | – | – |
| OC[C@H]1[C@@H](O)[C@H](O)[C@@H](O)CN1CCCC/C=C\C12CC3CC(CC(C3)C1)C2 | – | – | – | 8 nM | 12 µM | Not Active | – |
| OC[C@@H]1[C@@H](O)[C@H](O)[C@@H](O)CN1CCCCCOCc1cc2ccccc2c2ccccc12 | – | – | – | 100 nM | 10 µM | Not Active | – |
| OC[C@H]1[C@@H](O)[C@H](O)[C@@H](O)CN1CCCCCCC12CC3CC(CC(C3)C1)C2 | – | – | – | 20 nM | 25 µM | Not Active | – |
| OC[C@H]1[C@@H](O)[C@H](O)[C@@H](O)CN1CCCCCOCc1ccccc1 | – | – | – | 3 nM | 10 µM | – | 0.2 µM |
| OC[C@H]1[C@@H](O)[C@H](O)[C@@H](O)CN1CCCCCOCc1ccccc1-c1ccccc1 | 95 µM | 25 µM | > 100 µM | – | – | – | – |

Other lines, results leading:

| IC50 [1] | IC50 [2] | IC50 [3] | IC50 [4] | IC50 [5] | IC50 [6] | IC50 [7] | SMILES |
| --- | --- | --- | --- | --- | --- | --- | --- |
| 0.25 µM | 9 µM | 2.5 µM | 3 nM | 400 µM | – | – | C[C@H](OCCCCCN1C[C@H](O)[C@@H](O)[C@H](O)[C@H]1CO)c1ccc(-c2ccccc2)cc1 |
| 100 µM | 60 µM | > 100 µM | – | – | – | 0.07 µM | OC[C@H]1[C@@H](O)[C@H](O)[C@@H](O)CN1CCCCCOCc1cccc(-c2ccccc2)c1 |
| 70 µM | – | > 100 µM | – | – | – | – | OC[C@H]1[C@@H](O)[C@H](O)[C@@H](O)CN1CCCCCOCc1ccc(-c2ccccc2)cc1 |
| > 100 µM | 80 µM | > 100 µM | – | – | – | – | OC[C@H]1[C@@H](O)[C@H](O)[C@@H](O)CN1CCCC(F)(F)COCc1ccc(-c2ccccc2)cc1 |
| 1.5 µM | 50 µM | 8 µM | – | – | – | – | OC[C@@H]1[C@@H](O)[C@H](O)[C@@H](O)CN1CCCCCOCc1ccc(-c2ccccc2)cc1C(F)(F)F |
| 1.25 µM | 45 µM | 7 µM | 0.08 nM | – | – | – | OC[C@@H]1[C@@H](O)[C@H](O)[C@@H](O)CN1CCCCCOCc1ccc(-c2ccccc2)c(C(F)(F)F)c1 |
| 0.4 µM | 27 µM | 9 µM | 1 nM | 0.3 µM | – | 0.06 µM | OC[C@@H]1[C@@H](O)[C@H](O)[C@@H](O)CN1CCCC(F)(F)COCc1ccc(-c2ccccc2)cc1 |
| 0.25 µM | – | 2 µM | – | – | – | – | OC[C@@H]1[C@@H](O)[C@H](O)[C@@H](O)CN1CCCCCOCc1ccc(-c2ccccc2)cc1 |
| 35 µM | > 100 µM | > 100 µM | 10 nM | 0.125 µM | – | 1.25 µM | OC[C@@H]1[C@@H](O)[C@H](O)[C@@H](O)CN1CC(F)(F)CCCOCc1ccc(-c2ccccc2)cc1 |
| > 100 µM | 100 µM | > 100 µM | – | – | – | – | OC[C@H]1[C@@H](O)[C@H](O)[C@@H](O)CN1CCCCCOCc1ccc(-c2ccccc2)c(C(F)(F)F)c1 |
| > 100 µM | > 100 µM | > 100 µM | – | – | – | 0.02 µM | OC[C@H]1[C@@H](O)[C@H](O)[C@@H](O)CN1CC(F)(F)CCCOCc1ccc(-c2ccccc2)cc1 |
| > 100 µM | 45 µM | > 100 µM | – | – | – | – | C[C@@H](OCCCCCN1C[C@H](O)[C@@H](O)[C@H](O)[C@@H]1CO)c1ccc(-c2ccccc2)cc1 |
| 0.2 µM | 20 µM | 1.5 µM | – | – | – | – | OC[C@@H]1[C@@H](O)[C@H](O)[C@@H](O)CN1CCCCCOCc1cccc(-c2ccccc2)c1 |
| > 100 µM | > 100 µM | > 100 µM | – | – | – | – | C[C@H](OCCCCCN1C[C@H](O)[C@@H](O)[C@H](O)[C@@H]1CO)c1ccc(-c2ccccc2)cc1 |
| 0.5 µM | 35 µM | 4 µM | 3 nM | 0.3 µM | – | – | C[C@@H](OCCCCCN1C[C@H](O)[C@@H](O)[C@H](O)[C@H]1CO)c1ccc(-c2ccccc2)cc1 |
